The source made the active and inactive calls.
Key:
[1] = Trypanosoma cruzi growth suppression in host cells – NIH3T3 host cells, beta-gal luminescence, confirmation (AID 2044); assay type: functional, cell-based;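 also: intracellular parasites grown in NIH/3T3 mouse fibroblasts as host cells; luminescent beta-galactosidase reporter signal from transgenic T. cruzi replicating inside host cells; inhibitors lower the luminescence signal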
[2] = NIH3T3 cell viability loss – ATP luminescence, mouse fibroblasts, counter-screen, dose response (AID 2010); assay type: functional, cell-based;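 also: cells exposed to compound for about 90 hours before reading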
Streptococcus = test: GAS UMAA2166 growth inhibition – luminescence, BacTiterGlo, counter-screen for streptokinase expression inhibitor project, dose response (AID 1915); assay type: functional, organism-based;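 also: potency for reduction of bacterial viability or growth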
[3] = test system: Streptococcus sp. 'group A'; test: Streptococcus pyogenes SK(-)GAS viability under kanamycin – luminescence, BacTiterGlo, confirmation, counter-screen for streptokinase expression inhibitor project, dose response (AID 1900); assay type: functional, organism-based
Streptokinase A = target: T1, Streptokinase A (Streptococcus pyogenes serotype M1, UniProt P10520); test: viability-normalized secreted streptokinase activity reduction – plasminogen activation absorbance, OD405, dose response (AID 1914); assay type: functional, Streptococcus pyogenes M1 GAS;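 also: secreted streptokinase activity via plasminogen activation per viability signal from cell pellet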
T1 sequence (P10520 whole entry): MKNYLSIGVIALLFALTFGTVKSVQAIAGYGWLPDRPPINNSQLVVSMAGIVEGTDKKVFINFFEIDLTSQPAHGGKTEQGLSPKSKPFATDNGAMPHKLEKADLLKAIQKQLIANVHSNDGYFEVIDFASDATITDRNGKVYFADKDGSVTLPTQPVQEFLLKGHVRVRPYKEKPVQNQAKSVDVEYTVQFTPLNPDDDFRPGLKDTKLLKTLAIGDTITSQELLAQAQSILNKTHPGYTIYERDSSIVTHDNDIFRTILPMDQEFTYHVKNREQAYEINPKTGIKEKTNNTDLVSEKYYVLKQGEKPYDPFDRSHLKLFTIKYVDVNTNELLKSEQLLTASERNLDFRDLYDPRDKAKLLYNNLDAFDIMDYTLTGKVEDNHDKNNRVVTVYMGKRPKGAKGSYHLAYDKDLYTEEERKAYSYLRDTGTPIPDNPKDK

[4] = viability of uninfected HEp-2 cells – cell-based, HTS, cytotoxicity control for RSV inhibitor project, dose response (AID 2410); assay type: functional; details: human respiratory syncytial virus
Cytochrome P450 2C9 = Cytochrome P450 2C9 (Homo sapiens, UniProt P11712)
Chain of Cytochrome P450 2C9 (P11712 whole entry): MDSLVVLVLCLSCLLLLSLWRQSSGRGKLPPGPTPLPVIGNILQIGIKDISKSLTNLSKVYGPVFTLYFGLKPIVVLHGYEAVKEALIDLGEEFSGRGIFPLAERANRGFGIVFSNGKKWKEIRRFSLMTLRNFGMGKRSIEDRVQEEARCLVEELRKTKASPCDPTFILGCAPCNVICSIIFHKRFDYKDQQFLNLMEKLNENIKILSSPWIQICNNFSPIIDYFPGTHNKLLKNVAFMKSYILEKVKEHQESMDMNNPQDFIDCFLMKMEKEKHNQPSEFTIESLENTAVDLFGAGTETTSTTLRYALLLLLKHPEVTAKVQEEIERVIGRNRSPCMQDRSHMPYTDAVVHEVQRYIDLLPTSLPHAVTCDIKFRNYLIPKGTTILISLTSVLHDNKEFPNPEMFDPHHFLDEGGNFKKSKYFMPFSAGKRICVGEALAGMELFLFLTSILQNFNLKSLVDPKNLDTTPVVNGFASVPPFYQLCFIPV

Cytochrome P450 2C19 = Cytochrome P450 2C19 (Homo sapiens, UniProt P33261); test: Cytochrome panel assay with activity outcomes. Panel member name: p450-cyp2c19 Compounds with AC50 equal or less than 10 uM are considered active; assay type: functional
Chain of Cytochrome P450 2C19 (P33261 whole entry): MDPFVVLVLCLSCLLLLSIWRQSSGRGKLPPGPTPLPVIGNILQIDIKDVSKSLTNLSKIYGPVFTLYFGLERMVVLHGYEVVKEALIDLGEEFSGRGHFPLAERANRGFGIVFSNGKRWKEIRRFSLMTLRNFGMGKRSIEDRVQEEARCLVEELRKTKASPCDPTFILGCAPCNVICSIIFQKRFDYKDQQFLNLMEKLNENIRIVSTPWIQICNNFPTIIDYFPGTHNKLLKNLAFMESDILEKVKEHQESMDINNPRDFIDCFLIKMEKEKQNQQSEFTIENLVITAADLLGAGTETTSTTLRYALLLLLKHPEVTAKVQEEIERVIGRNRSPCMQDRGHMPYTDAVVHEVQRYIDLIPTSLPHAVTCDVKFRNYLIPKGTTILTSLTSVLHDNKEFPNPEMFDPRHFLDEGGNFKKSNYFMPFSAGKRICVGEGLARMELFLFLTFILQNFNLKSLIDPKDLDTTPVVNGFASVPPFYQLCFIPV

CCn1cc(CN2CCCC(C(=O)c3ccc(-c4ccccc4)cc3)C2)cn1 (centres undefined)
EC50 [1]: 222 nM (active)
EC50 [2]: 16.7 µM (active)

FC(F)Sc1ccc(NC(S)=NC(c2ccccc2)c2ccccc2)cc1
EC50 (Streptococcus): 3.15 µM (active)
EC50 [3]: 2.4 µM (active)

O=S(=O)(Nc1cccc2c1CCCC2)c1ccc(Cl)cc1
EC50 (Streptococcus): > 150 µM (not active)
EC50 [3]: 4.86 µM (active)
EC50 (Streptokinase A): 97.8 µM (inconclusive)

O=C(/C=C/c1cc[n+](CC(=O)c2ccc3cccc4c3c2CC4)cc1)c1ccc2cccc3c2c1CC3
EC50 [1]: 146 nM (active)
EC50 [2]: > 60 µM (not active)

COc1ccc(C2(C)NC(=O)N(CC(=O)Nc3ccc(-c4nc5ccc(C)cc5s4)cc3)C2=O)cc1 (centres undefined)
CC50 [4]: 29.8 µM (active)

CN(C)CCCNc1ncc(C(F)(F)F)cc1Cl
EC50 [1]: 659 nM (active)
EC50 [2]: > 30 µM (not active)

O=C1NC(=O)N(CCc2ccccc2)C(=O)/C1=C(O)/C=C/c1c[nH]c2ccccc12
EC50 (Streptococcus): 5.6 µM (active)
EC50 [3]: 5.47 µM (active)
EC50 (Streptokinase A): > 150 µM (not active)

Cc1ccc(Cn2cccc(NC(=O)NCc3ccccc3)c2=O)cc1
AC50 (Cytochrome P450 2C9): 14.1 µM (inconclusive)
AC50 (Cytochrome P450 2C19; read-out: AC50): 5.01 µM (inconclusive)

COc1ccc(Oc2nc(C(F)(F)F)nc3ccccc23)cc1
EC50 (Streptococcus): > 150 µM (not active)
EC50 [3]: 29.1 µM (active)
EC50 (Streptokinase A): 46.8 µM (active)

Cc1cc(N2CCOCC2)nc2ccc(NC(=O)CCC(=O)N3CCN(c4ccc(F)cc4)CC3)cc12
CC50 [4]: > 12.5 µM (active)

CCOCCCN=C(S)NCCNc1nc2c(C)cccc2cc1C#N
EC50 [1]: 2730 nM (active)
EC50 [2]: > 60 µM (not active)

O=C(CCC(=O)Nc1ccccc1)NNC(=O)c1cccs1
AC50 (Cytochrome P450 2C9): 31.6 µM (inconclusive)
AC50 (Cytochrome P450 2C19; read-out: AC50): 39.8 µM (inconclusive)

C=CCn1c(SCc2cc(=O)n3ccsc3n2)nc2scc(C3CC3)c2c1=O
CC50 [4]: 33.1 µM (active)

Cc1cnn(-c2nc(-c3ccccc3)cc(-c3ccccc3)n2)c1
EC50 (Streptococcus): > 150 µM (not active)
EC50 [3]: 9.49 µM (active)
EC50 (Streptokinase A): 27.2 µM (active)

CCCCCSc1nc2c(c(=O)[nH]c(=O)n2C)n1C
CC50 [4]: > 50 µM (active)

Cc1ccc2nc(O)c(CN(CCCN(C)C)C(S)=NCCc3ccccc3)cc2c1
EC50 [1]: 409 nM (active)
EC50 [2]: > 60 µM (not active)

CCN(CC)CCN(C)C(=O)CCc1nnc(-c2ccc(C)s2)o1
EC50 [1]: 1350 nM (active)
EC50 [2]: > 60 µM (not active)

O=C(Nc1cccc(-c2csc(Nc3ccc(Cl)cc3)n2)c1)c1ccccc1
EC50 (Streptococcus): 5.66 µM (active)
EC50 [3]: 4.01 µM (active)
EC50 (Streptokinase A): > 150 µM (not active)
CC50 [4]: 10.3 µM (active)

CCC(C(=O)NC(C)CCc1ccccc1)n1nc(C)n2c(cc3occc32)c1=O (centres undefined)
CC50 [4]: 39.2 µM (active)

O=C(Nc1nc(-c2ccccn2)cs1)C1CC1
EC50 (Streptococcus): > 150 µM (not active)
EC50 [3]: > 150 µM (not active)
EC50 (Streptokinase A): > 150 µM (not active)

CN1CCC(OC(=O)c2ccccc2Cl)CC1
EC50 [1]: 178 nM (active)
EC50 [2]: 10.5 µM (active)

CC1=C(C#N)C(NC(=O)C2CCCCC2)(C(F)(F)F)C(=O)N1 (centres undefined)
AC50 (Cytochrome P450 2C9): 7.94 µM (inconclusive)
AC50 (Cytochrome P450 2C19; read-out: AC50): 28.2 µM (inconclusive)

Sc1nnc(-c2cccs2)n1/N=C/c1cn(-c2ccccc2)nc1-c1ccccc1
EC50 (Streptococcus): 71.7 µM (active)
EC50 [3]: 6.85 µM (active)
EC50 (Streptokinase A): > 150 µM (not active)

NC(=S)N/N=C\c1c(OCc2ccccc2Cl)ccc2ccccc12
EC50 (Streptococcus): > 150 µM (not active)
EC50 [3]: 2.39 µM (active)
EC50 (Streptokinase A): > 150 µM (not active)

FC(F)(F)c1ccccc1/C=N/n1c(S)nnc1COc1ccccc1
CC50 [4]: 32.1 µM (active)

COC(=O)[C@@H]1CC[C@H](C)[C@@H](c2ccc(C)cc2)N1C(=O)c1ccc(/C=N/O[C@@H](C)c2cn([C@H](CO)Cc3ccccc3)nn2)cc1
EC50 [1]: 891 nM (active)
EC50 [2]: > 60 µM (inconclusive)

Cn1c[n+](C)cc1/C=N/O
AC50 (Cytochrome P450 2C19; read-out: AC50): 8.91 µM (inconclusive)

C=CCNC(=O)O/N=C/c1csc([N+](=O)[O-])c1
EC50 [1]: 1930 nM (active)
EC50 [2]: > 60 µM (not active)

COc1ccc(CCNC=C2C(=O)CC(C)(C)CC2=O)cc1
AC50 (Cytochrome P450 2C9): 12.6 µM (inconclusive)
AC50 (Cytochrome P450 2C19; read-out: AC50): 28.2 µM (inconclusive)

Cn1c(=O)c2[nH]c(-c3ccc(S(=O)(=O)O)cc3)nc2n(C)c1=O
AC50 (Cytochrome P450 2C19): inconclusive

O=C(N[C@H](CO)[C@H](O)c1ccc([N+](=O)[O-])cc1)C(Cl)Cl [CHLORAMPHENICOL]
EC50 (Streptococcus): 2.55 µM (active)
EC50 [3]: 1.84 µM (active)

CN1C(C(=O)Nc2ccccn2)=C(O)c2sccc2S1(=O)=O [TENOXICAM]
AC50 (Cytochrome P450 2C9): 2.51 µM (inconclusive)

Source: ChEMBL document CHEMBL1201862, “PubChem BioAssay data set” (2004)
